# Reference: patent publication US20230243016A1, “APPLICATIONS OF CARBOXYLIC COMPOUND SERVING AS EXTRACTING AGENT AND METAL ION EXTRACTION METHOD” (BOTREE CYCLING SCI & TECH CO., LTD., priority 2020, published 2023)
# Legend:
# [1] = Extraction performance for non-ferrous metal ions (Example 1); assay type: physicochemical; settings: 0.2 mol/L in dodecane, 0.01 mol/L sulfate solution, O/A 1:1
# Method: (§1) In the embodiments of the present application, after extraction, a metal ion concentration of the aqueous phase is analyzed using the inductively coupled plasma optical emission spectroscopy (ICP-OES), and a metal ion concentration of the organic phase is calculated by the difference subtraction method.
# (§2) Extractant 191 was dissolved in dodecane to prepare a 0.2 mol/L organic phase, and 0.01 mol/L sulfate solutions of Cu^2+, Zn^2+, Cd^2+, Ni^2+, Co^2+, Mn^2+, Ca^2+, Mg^2+, and Li^+ were prepared as aqueous phases, respectively.
# [2] = Separation coefficients between non-ferrous metal ions (Example 1, Comparative Example 3); assay type: physicochemical
# Method: as §1, §2
# This comparative example differs from Example 1 in that Extractant 191 was replaced with extractant Versatic 10 (commercially available, with an acid content of 98%).
# [3] = Extraction for a magnesium-enriched nickel chloride solution (Example 5); assay type: physicochemical; settings: 0.31 mol/L in dodecane; chloride solution 1.33 g/L Ni, 4 g/L Mg; O/A 1:1
# Method: as §1
# Extractant 191 was dissolved in dodecane to prepare a 0.31 mol/L organic phase, and an aqueous phase was the magnesium-enriched nickel chloride solution containing 1.33 g/L Ni and 4 g/L Mg.
# [4] = Back extraction of organic phase loaded with rare earth ions (Example 8); assay type: physicochemical; settings: organic phase loaded with 0.10 mol/L Lu; 1.0 mol/L hydrochloric acid; O/A 1:1
# [5] = Extraction performance for trivalent ions (Example 2); assay type: physicochemical; settings: 0.1 mol/L in toluene, 0.005 mol/L chloride solution, O/A 1:1
# Method: as §1
# (§3) The Extractant 195 was dissolved in toluene to prepare a 0.1 mol/L organic phase, and 0.005 mol/L chloride solutions of Fe^3+, Ga^3+, In^3+, Sc^3+, Cr^3+, Al^3+, Lu^3+, Ho^3+, and Gd^3+ were prepared as aqueous phases, respectively.
# [6] = Separation coefficients between trivalent ions (Example 2); assay type: physicochemical
# Method: as §1, §3
# [7] = Saturation capacity test for Ni^2+ (Example 7); assay type: physicochemical; settings: 0.6 mol/L in dodecane, saponified to 60%; repeated contact with 50 g/L NiSO4
# Excerpt: The organic phase was back-extracted and the saturation capacity of Extractant 196 for Ni^2+ was obtained to be about 16.9 g/L.
# [8] = Extraction from a battery material solution (Example 3, Comparative Example 4); assay type: physicochemical; settings: 0.6 mol/L in Escaid 110
# Method: as §1
# Extractant 196 was dissolved in Escaid 110 to prepared a 0.6 mol/L organic phase, and the battery material solution contained Ni (46.20 g/L), Co (20.56 g/L), Mn (23.93 g/L), Ca (0.43 g/L), and Mg (0.21 g/L).
# The extractant was dissolved in Escaid 110 and prepared to a 0.6 mol/L organic phase, and a battery material solution contained Ni (46.20 g/L), Co (20.56 g/L), Mn (23.93 g/L), Ca (0.43 g/L), and Mg (0.21 g/L). […] By observing the experimental phenomenon where the extractant exists in the battery material solution system, it can be seen that when the aqueous phase equilibrium pH is greater than 5.33, the phase separation phenomenon becomes worse, the aqueous phase is turbid and viscous, and the organic phase gradually becomes colorless; it can be seen from FIG. 7 that when the aqueous phase equilibrium pH is greater than 5.33, the extraction capability of the extractant for metal ions decreases.
# [9] = Extraction performance for rare earth ions, mixed chloride solution (Example 4); assay type: physicochemical; settings: 2 mol/L in dodecane, O/A 1:1, ammonia saponification
# Method: as §1
# [10] = organic phase loaded with Lu; 4 mol/L hydrochloric acid (general practice); cited from earlier work
# [11] = pH½, Example 1 / Comparative Example 3 system
# [12] = aqueous phase equilibrium pH greater than 5.33, O/A 8:1
smiles,measurement,setting,value
CCCCCCCCCCC(CCCCCC)C(=O)O (stereo not drawn) [Extractant 191],Extraction pH½ for Ca^2+,[1],7.32
same,Extraction pH½ for Cd^2+,[1],6.38
same,Extraction pH½ for Co^2+,[1],7.00
same,Extraction pH½ for Li^+,[1],9.75
same,Extraction pH½ for Mg^2+,[1],7.59
same,Extraction pH½ for Mn^2+,[1],7.01
same,Extraction pH½ for Ni^2+,[1],6.85
same,Extraction pH½ for Zn^2+,[1],5.91
same,Extraction pH½ for Cu^2+,[1]; pH by 6 mol/L NaOH saponification,4.49
same,Separation coefficient Cd^2+ / Ca^2+,"[2]; Cd^2+, row Ca^2+, Example 1 system",75.86
same,Separation coefficient Cd^2+ / Co^2+,"[2]; Cd^2+, row Co^2+, Example 1 system",17.38
same,Separation coefficient Cd^2+ / Mg^2+,"[2]; Cd^2+, row Mg^2+, Example 1 system",263.03
same,Separation coefficient Cd^2+ / Mn^2+,"[2]; Cd^2+, row Mn^2+, Example 1 system",18.20
same,Separation coefficient Cd^2+ / Ni^2+,"[2]; Cd^2+, row Ni^2+, Example 1 system",8.71
same,Separation coefficient Co^2+ / Ca^2+,"[2]; Co^2+, row Ca^2+, Example 1 system",4.37
same,Separation coefficient Co^2+ / Mg^2+,"[2]; Co^2+, row Mg^2+, Example 1 system",15.14
same,Separation coefficient Co^2+ / Mn^2+,"[2]; Co^2+, row Mn^2+, Example 1 system",1.05
same,Separation coefficients between various ions (all pairs),"[2]; Cu^2+, Zn^2+, Cd^2+, Ni^2+, Co^2+, Mn^2+, Ca^2+, Mg^2+, Li^+",greater than 1
same,Separation coefficient Cu^2+ / Ca^2+,"[2]; Cu^2+, row Ca^2+, Example 1 system",457088.19
same,Separation coefficient Cu^2+ / Cd^2+,"[2]; Cu^2+, row Cd^2+, Example 1 system",6025.60
same,Separation coefficient Cu^2+ / Co^2+,"[2]; Cu^2+, row Co^2+, Example 1 system",104712.85
same,Separation coefficient Cu^2+ / Mg^2+,"[2]; Cu^2+, row Mg^2+, Example 1 system",1584893.19
same,Separation coefficient Cu^2+ / Mn^2+,"[2]; Cu^2+, row Mn^2+, Example 1 system",109647.82
same,Separation coefficient Cu^2+ / Ni^2+,"[2]; Cu^2+, row Ni^2+, Example 1 system",52480.75
same,Separation coefficient Cu^2+ / Zn^2+,"[2]; Cu^2+, row Zn^2+, Example 1 system",691.83
same,Extraction order of ions (FIG. 1),"[2]; E%-pH curves, Example 1",extracts nickel and cobalt ions in order before calcium and magnesium
same,Separation coefficient Ni^2+ / Ca^2+,"[2]; Ni^2+, row Ca^2+, Example 1 system",8.71
same,Separation coefficient Ni^2+ / Co^2+,"[2]; Ni^2+, row Co^2+, Example 1 system",2.00
same,Separation coefficient Ni^2+ / Mg^2+,"[2]; Ni^2+, row Mg^2+, Example 1 system",30.20
same,Separation coefficient Ni^2+ / Mn^2+,"[2]; Ni^2+, row Mn^2+, Example 1 system",2.09
same,Separation coefficient Zn^2+ / Ca^2+,"[2]; Zn^2+, row Ca^2+, Example 1 system",660.69
same,Separation coefficient Zn^2+ / Cd^2+,"[2]; Zn^2+, row Cd^2+, Example 1 system",8.71
same,Separation coefficient Zn^2+ / Co^2+,"[2]; Zn^2+, row Co^2+, Example 1 system",151.36
same,Separation coefficient Zn^2+ / Mg^2+,"[2]; Zn^2+, row Mg^2+, Example 1 system",2290.87
same,Separation coefficient Zn^2+ / Mn^2+,"[2]; Zn^2+, row Mn^2+, Example 1 system",158.49
same,Separation coefficient Zn^2+ / Ni^2+,"[2]; Zn^2+, row Ni^2+, Example 1 system",75.86
same,Separation coefficient Ca^2+ / Mg^2+,"[2]; column Ca^2+, row Mg^2+, Example 1 system",3.47
same,Separation coefficient Mn^2+ / Ca^2+,"[2]; column Mn^2+, row Ca^2+, Example 1 system",4.17
same,Separation coefficient Mn^2+ / Mg^2+,"[2]; column Mn^2+, row Mg^2+, Example 1 system",14.45
same,βNi/Ca (separation coefficient),[2]; [11],8.71
same,βNi/Co (separation coefficient),[2]; [11],2.00
same,βNi/Mg (separation coefficient),[2]; [11],30.2
same,βNi/Mn (separation coefficient),[2]; [11],2.09
same,βNi/Zn (separation coefficient),[2]; [11],75.86
same,Separation coefficients higher compared with Versatic 10,[2]; same test condition,20-30%
same,Extraction order of nickel and magnesium (FIG. 6),[3],extracts nickel in order before magnesium
same,Separation coefficient between nickel and magnesium,[3],about 833
CCCCCCCCC(CC)C(=O)O (stereo not drawn) [Extractant 192],Back extraction rate,[4],greater than 99%
CCCCCCCC(CCCCC)C(=O)O (stereo not drawn) [Extractant 195],Extraction pH½ for Al^3+,[5],3.60
same,Extraction pH½ for Cr^3+,[5],3.03
same,Extraction pH½ for Ga^3+,[5],2.60
same,Extraction pH½ for Gd^3+,[5],5.46
same,Extraction pH½ for Ho^3+,[5],5.26
same,Extraction pH½ for In^3+,[5],2.69
same,Extraction pH½ for Lu^3+,[5],5.06
same,Extraction pH½ for Sc^3+,[5],2.97
same,Extraction pH½ for Fe^3+,[5]; pH by 8 mol/L NaOH saponification,1.94
same,Separation coefficients between various ions (all pairs),"[6]; Fe^3+, Ga^3+, In^3+, Sc^3+, Cr^3+, Al^3+, Lu^3+, Ho^3+, Gd^3+",greater than 1
same,Separation coefficient Fe^3+ / Al^3+,"[6]; Fe^3+, row Al^3+, Example 2 system",95499.26
same,Separation coefficient Fe^3+ / Cr^3+,"[6]; Fe^3+, row Cr^3+, Example 2 system",1862.09
same,Separation coefficient Fe^3+ / Ga^3+,"[6]; Fe^3+, row Ga^3+, Example 2 system",95.50
same,Separation coefficient Fe^3+ / In^3+,"[6]; Fe^3+, row In^3+, Example 2 system",177.83
same,Separation coefficient Fe^3+ / Sc^3+,"[6]; Fe^3+, row Sc^3+, Example 2 system",1230.27
same,Separation coefficient Ga^3+ / Al^3+,"[6]; Ga^3+, row Al^3+, Example 2 system",1000.00
same,Separation coefficient Ga^3+ / Cr^3+,"[6]; Ga^3+, row Cr^3+, Example 2 system",19.50
same,Separation coefficient Ga^3+ / In^3+,"[6]; Ga^3+, row In^3+, Example 2 system",1.86
same,Separation coefficient Ga^3+ / Sc^3+,"[6]; Ga^3+, row Sc^3+, Example 2 system",12.88
same,Separation coefficient In^3+ / Al^3+,"[6]; In^3+, row Al^3+, Example 2 system",537.03
same,Separation coefficient In^3+ / Cr^3+,"[6]; In^3+, row Cr^3+, Example 2 system",10.47
same,Separation coefficient In^3+ / Sc^3+,"[6]; In^3+, row Sc^3+, Example 2 system",6.92
same,Separation coefficient Cr^3+ / Al^3+,"[6]; column Cr^3+, row Al^3+, Example 2 system",51.29
same,Separation coefficient Ho^3+ / Gd^3+,"[6]; column Ho^3+, row Gd^3+, Example 2 system",3.98
same,Separation coefficient Lu^3+ / Gd^3+,"[6]; column Lu^3+, row Gd^3+, Example 2 system",15.85
same,Separation coefficient Lu^3+ / Ho^3+,"[6]; column Lu^3+, row Ho^3+, Example 2 system",3.98
same,Separation coefficient Sc^3+ / Al^3+,"[6]; column Sc^3+, row Al^3+, Example 2 system",77.62
same,Separation coefficient Sc^3+ / Cr^3+,"[6]; column Sc^3+, row Cr^3+, Example 2 system",1.51
CCCCCCCCC(CCCCCC)C(=O)O (stereo not drawn) [Extractant 196],Saturation capacity for Ni^2+,[7],about 16.9 g/L
same,"Extraction of Ni, Co and Mn from the battery material solution","[8]; O/A 8:1, pH greater than 6.8",almost completely extracted
same,Extraction rate of Ca and Mg from the battery material solution,"[8]; O/A 8:1, pH greater than 6.8",low extraction rate
same,"Extraction of Ni, Co and Mn from the battery material solution","[8]; pH less than 7.2, O/A 5:1 and 8:1",selectively extracted
same,Extraction ability for rare earth ions (FIG. 5),[9],gradually decreases from heavy rare earths to light rare earths
CCCCC(CC)COP(=O)(O)CC(CC)CCCC (stereo not drawn) [Extractant P507],Primary back extraction rate,[10],about 80%
"CCCCCCCCCCCCCCCCCC(=O)O [stearic acid, reference compound]",Extraction capability for metal ions (FIG. 7),[8]; [12],decreases
same,Phase separation phenomenon,[8]; [12],becomes worse
